Values of other authors, collected in US9371263B2, “Protective effects of curcumin against hemorrhagic stroke injury” (Augusta University Research Institute, Inc., priority 2013, dated 2016).

Settings: humans, oral administration

systemic bioavailability: relatively low
Compound: COc1cc(/C=C/C(=O)CC(=O)/C=C/c2ccc(O)c(OC)c2)ccc1O [curcumin, diferuloylmethane]
